# Paper PMC3326594 (Journal of Medicinal Chemistry, 2012)
# Assays:
# P-gp = P-gp (Homo sapiens, UniProt P08183); conditions: for LE (ligand efficiency): binding free energy from IC50 per heavy atom, 310 K; for LipE (lipophilic efficiency): from pIC50 and clogP (eq 5)
# P-glycoprotein (P-gp) = P-glycoprotein (P-gp) (Homo sapiens, UniProt P08183); experiment: Inhibition of daunorubicin efflux in multidrug resistant CCRF-CEM vcr 1000 cells; assay type: cell-based
# hERG potassium channel = conditions: hERG blockers from literature; cited from earlier work
# [1] = pIC50 calcd, predicted from the clogP/pIC50 correlation line (Figure 2)
# Sequence of P-gp (P08183 whole entry): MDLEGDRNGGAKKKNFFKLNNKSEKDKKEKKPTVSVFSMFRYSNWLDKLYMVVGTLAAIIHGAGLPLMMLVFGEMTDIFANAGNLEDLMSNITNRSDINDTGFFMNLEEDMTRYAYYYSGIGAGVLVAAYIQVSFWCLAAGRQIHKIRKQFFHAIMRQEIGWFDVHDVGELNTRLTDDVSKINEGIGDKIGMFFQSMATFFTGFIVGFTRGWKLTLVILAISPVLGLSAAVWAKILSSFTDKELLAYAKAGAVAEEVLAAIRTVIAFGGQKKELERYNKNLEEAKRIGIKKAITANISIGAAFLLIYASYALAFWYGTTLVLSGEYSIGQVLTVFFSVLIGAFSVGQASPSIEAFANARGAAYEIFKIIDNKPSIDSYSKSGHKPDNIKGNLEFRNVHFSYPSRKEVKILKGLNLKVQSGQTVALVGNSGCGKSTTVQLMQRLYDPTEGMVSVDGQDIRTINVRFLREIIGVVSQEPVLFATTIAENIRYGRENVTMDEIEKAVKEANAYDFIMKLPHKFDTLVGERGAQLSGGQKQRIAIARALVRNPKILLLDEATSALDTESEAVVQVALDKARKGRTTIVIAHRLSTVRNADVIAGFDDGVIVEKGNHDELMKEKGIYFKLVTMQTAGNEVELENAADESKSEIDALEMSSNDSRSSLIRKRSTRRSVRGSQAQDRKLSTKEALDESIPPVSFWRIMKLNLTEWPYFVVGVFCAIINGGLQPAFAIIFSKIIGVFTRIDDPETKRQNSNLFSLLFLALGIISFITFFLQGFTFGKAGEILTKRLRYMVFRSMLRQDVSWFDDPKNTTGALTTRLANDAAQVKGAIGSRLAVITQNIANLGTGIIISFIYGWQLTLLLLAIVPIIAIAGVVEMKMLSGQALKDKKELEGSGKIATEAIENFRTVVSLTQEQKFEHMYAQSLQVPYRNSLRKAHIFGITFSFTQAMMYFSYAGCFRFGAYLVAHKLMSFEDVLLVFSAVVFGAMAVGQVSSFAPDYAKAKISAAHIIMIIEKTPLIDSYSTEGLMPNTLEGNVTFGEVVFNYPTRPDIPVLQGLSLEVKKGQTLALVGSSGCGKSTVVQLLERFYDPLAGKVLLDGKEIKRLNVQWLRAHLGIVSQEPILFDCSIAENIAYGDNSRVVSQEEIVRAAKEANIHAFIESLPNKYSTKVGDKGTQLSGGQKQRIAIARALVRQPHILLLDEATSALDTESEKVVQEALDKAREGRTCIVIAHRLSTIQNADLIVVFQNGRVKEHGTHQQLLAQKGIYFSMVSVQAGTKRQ
# Sequence of P-glycoprotein (P-gp) (P08183 whole entry): as above
SMILES,LE (ligand efficiency) (P-gp),LipE (lipophilic efficiency) (P-gp),further results
O=C(c1ccccc1)c1ccccc1OCC(O)CN1CCCCC1 (centres unmarked) [Compound 12],0.33 kcal per heavy atom,–,–
O=C(c1ccccc1)c1ccccc1OCC(O)CN1CCC(O)(c2ccccc2)CC1 (centres unmarked) [Compound 19],–,–,"IC50 (P-glycoprotein (P-gp); [1]): 1740 nM; factor more active than equilipophilic compound 20 (P-glycoprotein (P-gp); pairwise comparison of IC50, 19 vs 20): ~4 fold"
CCCNCC(O)COc1ccccc1C(=O)c1ccc(C)cc1 (centres unmarked) [Compound 20],0.35 kcal per heavy atom,–,–
O=C(CCc1ccccc1)c1ccccc1OCC(O)CN1CCCCC1 (centres unmarked) [GPV005],0.33 kcal per heavy atom,1.84,–
O=C(CCc1ccccc1)c1ccccc1OCC(O)CN1CCC(O)(c2ccccc2)CC1 (centres unmarked) [GPV062],0.30 kcal per heavy atom,–,–
CCOC/C=C/c1ccc(-c2nc(-c3ccc(NC(C)C)cc3)c(-c3ccc(NC(C)C)cc3)[nH]2)cc1 [ONT093],0.29 kcal per heavy atom,0.19,–
CN(CCOc1ccc(NS(C)(=O)=O)cc1)CCc1ccc(NS(C)(=O)=O)cc1 [dofetilide],–,–,potency values (hERG potassium channel): < 10 nM

# Further lines, with some results ahead:
LE (ligand efficiency) (P-gp),LipE (lipophilic efficiency) (P-gp),SMILES,further results
0.23 kcal per heavy atom,–,O=C(c1ccccc1)c1ccccc1OCC(O)CN1CCN(CC(O)COc2ccccc2C(=O)c2ccccc2)CC1 (centres unmarked) [Compound 23],"IC50 (P-glycoprotein (P-gp); [1]): 794 nM; IC50 (P-glycoprotein (P-gp); pIC50 obs, observed, daunorubicin efflux inhibition): 53.7 nM; more active than equilipophilic compound 21 (P-glycoprotein (P-gp); pairwise comparison of IC50, 23 vs 21): about 1 order of magnitude"
0.18 kcal per heavy atom,–,"CC(=O)c1cc(C)ccc1OCC(O)CN1CCN(CC(O)COc2ccccc2C(=O)c2ccccc2)CC1 (centres unmarked) [Compound 24, 1-[2-(3-{4-[3-(2-Benzoyl-phenoxy)-2-hydroxyl-propyl]-piperazine-1-yl}-2-hydroxy-propoxy)-5-methyl-phenyl]-ethanone]",–
0.22 kcal per heavy atom,1.93,COc1cc2c(cc1OC)CN(CCc1ccc(NC(=O)c3cc(OC)c(OC)cc3NC(=O)c3cnc4ccccc4c3)cc1)CC2 [Tariquidar],–
